The results in this text go back to patent publication US7879853B2, “4,6-disubstituted pyrimidines and their use as protein kinase inhibitors” (Bayer Schering Pharma AG, priority 2004, dated 2011).

In assay [1] the test system is MCF7 cells. In words: Cellular proliferation/cytotoxicity assay (Alamar Blue), MCF7. The format is cell-based. The note with it: Homo sapiens; MCF7, 48 hours, Alamar Blue (Resazurin); read-out: Anti-proliferative/cytotoxic activity: IC50 MCF7. On the procedure: The anti-proliferative activity of the compounds as described herein, is evaluated using MCF7 and MDA-MB-468 (ATCC HTB-22 and HTB-132) cell lines and the Alamar Blue (Resazurin) cell viability assay (O'Brien et al. Eur J Biochem 267, 5421-5426, 2000). Resazurin is reduced to the fluorescent rescrufin by cellular dehydrogenase activity, correlating with viable, proliferating cells. Test compounds are dissolved as 10 mM solutions in DMSO and subsequently diluted. MCF7 or […] cells were seeded into 96 well flat bottom plates at a density of 10000 cells/well (MCF7) or 5000 cells/well (MDA-MB-468) in a volume of 200 μl/well. 24 hours after seeding, 1 μl each of the compound dilutions are added into each well of the 96 well plates. Each compound dilution is tested as at least as duplicates. Wells containing untreated control cells were filled with 200 μl DMEM containing 0.5% v:v DMSO. The cells are then incubated with the substances for 48 hours at 37° C. in a humidified atmosphere containing 5% carbon dioxide. To determine cell viability, 20 μl of a Resazurin solution (Sigma; 90 mg/l) are added. After 4 hours incubation at 37° C. the fluorescence is measured at an extinction of 544 nm and an emission of 590 nm (Wallac Victor2; Perkin Elmer, USA). For the calculation of the cell viability the emission value from untreated cells is set as 100% viability and the emission rates of treated cells are set in relation to the values of untreated cells. Viabilities are expressed as % values. The corresponding IC50 values of the compounds for cytotoxic activity are determined from the concentration-effect curves by means of non-linear regression. The analysis of the data is performed using a biostatistical program (GraphPad Prism, USA).
(Alamar Blue is a resazurin reagent that responds to reducing activity.)

For assay [2], the target named is T1, Akt1 (full-length Akt1, inactive) (Homo sapiens, UniProt P31749).
T1 construct: recombinant full-length human Akt1 a containing N-terminal His6 tag; His6 (N); purchased Upstate, UK #14-279; host or cells: baculovirus infected Sf21 insect cells
In words: Biochemical Akt1 (inactive) assay (full-length Akt1), IMAP, PDK1-dependent activation. As to conditions: activation by PDK1 with PIP3 vesicles, 50 μM ATP, 60 min. at room temperature; read-out: Inhibition of Akt1 activation (full-length Akt1, inactive): IC50. How it is done: The enzyme is purified using Ni2+/NTA-agarose (Upstate, UK; #14-279).
The enzyme is purified using Ni2+/NTA-agarose.
PDK1-dependent activation and subsequent enzymatic activity of Akt1: Activity of purified human Akt1 is routinely measured in an assay in which the enzyme is first activated by PDK1 in the presence of phosphatidylinositol-3,4,5-triphosphate (PIP3). Once activated, Akt1-dependent phosphorylation of a fluorescence labelled peptide substrate is measured by fluorescence polarisation using the IMAP technology (Molecular Devices).
The phospholipids are prepared as follows: 5 mg DOPC/DOPS are solved in 200 μl 10 mM Tris (pH 7.4) and 300 μg PIP3 are resuspended in 950 μl 10 mM Tris (pH 7.4) by pipetting. 950 μl solved PIP3 are mixed with 50 μl solved DOPC/DOPS and incubated for 2 h at a temperature below 20° C. Then the mixture is subjected to sonification for 30 min. at max. power until a translucent phopholipid vesicle preparation is obtained. Aliquots of the vesicle suspension are frozen at −80° C. until needed, likewise the solved DOPC/DOPS.
Assays are performed in 384-well plates. Incubations are carried out for 60 min. at room temperature. The reaction buffer mixture contains in a final volume of 25 μl: 10 mM Tris pH 7.4, 10 mM MgCl2. 1 mM DTT, and 0,1 mg/ml BSA. In contrast the activation buffer contains: 50 ng/well Akt1, 20 ng/well PDK1, 1.25 μM peptide substrat, 50 μM ATP, and phospholipid vesicles (1:20). Test compounds are added from stock solutions in DMSO before activation of Akt1 by PDK1. After the incubation the beads (IMAP binding reagent; Molecular Devices; 1:167) are added and the fluorescence polarization is measured (excitation 485 nm, emission 530 nm). The analysis of the data is performed using a biostatistical program.

The target in assay [3] is T2, Akt1 (full-length Akt1, active) (Homo sapiens, UniProt P31749).
T2 construct: recombinant full-length human Akt1, containing N-terminal His6 tag; His6 (N); GST (alternative statement of the assay paragraph) (N); purchased Upstate, UK #14-276; host or cells: baculovirus infected Sf21 insect cells
The assay can be described thus: Biochemical Akt1 (active) assay (full-length Akt1), flashplate, Crosstide. The note with it: Crosstide substrate, 100 nM ATP, 60 minutes at 30° C.; read-out: Akt1 inhibition (full-length Akt1, active): IC50. From the text: For the biochemical Akt1 assay recombinant full-length human Akt1, containing N-terminal His6 tag was cloned and expressed in baculovirus infected Sf21 insect cells. Akt1 is activated with GST-MAPKAP-K2 and PDK1, and repurified on Ni2+/NTA-agrose and glutathioneagarose (Upstate, UK; #14-276).
In order to study the inhibition of Akt1 (full-length version) according to the invention, a flashplate-based assay has been developed.
The full-length Akt1 assay is a biochemical assay using Akt1 N-terminally fused to GST and co-expressed with PDK1 in insect cells. The Akt1 assay is run in 96 well plates by incubating 500 ng/well GST-Akt1, 1 μM Crosstide (N-terminally biotinylated synthetic peptide (KGSGSGRPRTSSFAEG) Upstate, #12-385) as substrate, 10 μl of test compound (test compounds were dissolved as 10 mM solutions in dimethylsulfoxide (DMSO) and subsequently diluted) and 100 nM ATP (including ^33P-ATP) in 100 μl of reaction buffer (50 mM HEPES, pH7.5; 3 mM MgCl2; 3 mM MnCl2; 3 μM Na-Orthovanadat; 1 mM DTT; 1 μg/ml PEG8000) for 60 minutes at 30° C. in 96 well microtiter plates. The reactions are terminated by adding 100 μl stopping buffer (5M NaCl, 35 mM EDTA pH 8,0) for 5 minutes. 190 μl of the reaction mixture are transferred into streptavidin-coated Flashplates (Perkin Elmer, #SMP-103) and incubated for further 30 minutes at room temperature. The plates are washed 3 times by using washing buffer (0.9% NaCl). Relying on the incorporation of ^33P into the peptide substrate crosstide, the detection is based on the specific binding of the biotinylated peptide to the streptavidin-coated surface of scintillator-coated flash plates (NEN, USA; #SMP-103). This phosphorylation is measured by counting the plate for 60 sec. using a plate reader (Wallac Microbeta; Perkin Elmer, USA). The analysis of the data is performed using a biostatistical program (GraphPad Prism, USA).

Each structure is given as a SMILES string.

T1 sequence (P31749 whole entry): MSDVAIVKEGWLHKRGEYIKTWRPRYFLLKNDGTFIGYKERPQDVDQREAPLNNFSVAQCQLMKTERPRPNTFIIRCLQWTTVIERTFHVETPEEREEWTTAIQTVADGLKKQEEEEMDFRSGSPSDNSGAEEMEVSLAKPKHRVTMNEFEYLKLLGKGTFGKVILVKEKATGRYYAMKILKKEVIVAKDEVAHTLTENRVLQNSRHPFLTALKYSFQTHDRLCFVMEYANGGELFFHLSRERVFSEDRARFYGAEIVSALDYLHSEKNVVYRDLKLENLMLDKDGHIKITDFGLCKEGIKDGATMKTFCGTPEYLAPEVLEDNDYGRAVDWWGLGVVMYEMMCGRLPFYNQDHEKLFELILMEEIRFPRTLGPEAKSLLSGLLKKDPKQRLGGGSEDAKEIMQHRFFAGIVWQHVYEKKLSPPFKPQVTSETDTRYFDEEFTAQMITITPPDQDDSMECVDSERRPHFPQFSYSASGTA
T2 sequence (P31749 whole entry): as above

Turning to `CC(C)(N)c1ccc(C(=O)Nc2ccc(Nc3cc(-c4cccc5c4oc4ccccc45)ncn3)cc2)cc1` [Compound 69, 4-(1-Amino-1-methyl-ethyl)-N-[4-(6-dibenzofuran-4-yl-pyrimidin-4-ylamino)-phenyl]-benzamide trifluoracetate], the IC50 in assay [1] was not above 16.6 µM; in assay [2], not above 4.4 µM; in assay [3], not above 1.75 µM.
